Reference: patent US12257247B2 (Monte Rosa Therapeutics AG, priority 2023, dated 2025)
Read-outs that look alike come from different tables or passages of the source.

Molecular target: T1, VAV1 (Homo sapiens, UniProt P15498+Q96SW2)
T1 construct: A heterozygous VAV1 C-terminal HiBiT knock-in pool was generated at Monte Rosa Therapeutics from a clonal Jurkat cell; endogenous in cells; host or cells: Jurkat clone stably expressing LgBiT, homozygous GSPT1-G575N; heterozygous VAV1-HiBiT knock-in pool
Experiment: VAV1 degradation activity, VAV1-HiBiT knock-in Jurkat luminescence assay (Example A, Table 1)
Type: cell-based
Conditions: VAV1-HiBiT knock-in Jurkat cells; for Dmax: Jurkat
Procedure, shortened: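 Luminescence was measured at 6 and 24 h after adding compound (10 μM stock) to VAV1-HiBiT knock-in Jurkat cells, which had been pre-incubated ~16 h at 37° C. in RPMI/10% FBS containing Endurazine. EC50 values came from control-normalised responses fitted to a 3-parameter logistic model with hillslope fixed at 1.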

[1] = luminescence read at 6 and 24 hours, read-out: VAV1 Dmax %
[2] = luminescence read at 6 and 24 hours, read-out: VAV1 Dmax %, class
[3] = luminescence read at 6 and 24 hours, read-out: VAV1 DC50
[4] = luminescence read at 6 and 24 hours, read-out: VAV1 DC50 (nM), class
[5] = luminescence read at 6 and 24 hours

Structure (SMILES)	Dmax [1]	Dmax [2]	DC50 [3]	DC50 [4]	Dmax (luminescence read at 6 and 24 hours after compound addition, read-out: VAV1 Dmax %)	Dmax (luminescence read at 6 and 24 hours after compound addition, read-out: VAV1 Dmax %, class)	DC50 (luminescence read at 6 and 24 hours after compound addition, read-out: VAV1 DC50)	DC50 (luminescence read at 6 and 24 hours after compound addition, read-out: VAV1 DC50 (nM), class)	VAV1 Dmax % [5]	VAV1 Dmax %, class [5]
CC1(C)CCN(Cc2ccc(-c3cccc(C4CCC(=O)NC4=O)c3Cl)cc2)C(=O)C1 (centres unmarked) [Compound 285]	95.2%	> 90%	10.2 nM	≤ 100 nM						
Nc1nccn1Cc1ccc(-c2cccc(C3CCC(=O)NC3=O)c2Cl)cc1 (centres unmarked) [Compound 102]	84.1%	60 to 90%	240 nM	100 to 1000 nM						
Cn1ccc(COc2ccc(-c3ccc(Cl)c(C4CCC(=O)NC4=O)c3)c(Cl)c2)n1 (centres unmarked) [Compound 153, 3-(2′,4-dichloro-4′-((1-methyl-1H-pyrazol-3-yl)methoxy)-[1,1′-biphenyl]-3-yl)piperidine-2,6-dione]	1.26%	< 60%	≥ 10000 nM	> 1000 nM						
O=C1CCC(c2cccc(-c3ccc(CN4C(=O)CCC45CCC5)cc3)c2Cl)C(=O)N1 (centres unmarked) [Compound 293]	95.8%	> 90%	6.99 nM	≤ 100 nM						
O=C1CCC(c2cccc(-c3ccc(Cc4nccc(C5COC5)n4)cc3)c2Cl)C(=O)N1 (centres unmarked) [Compound 340, 3-(2-chloro-4′-((4-(oxetan-3-yl)pyrimidin-2-yl)methyl)-[1,1′-biphenyl]-3-yl)piperidine-2,6-dione]	96.6%	> 90%	5.86 nM	≤ 100 nM						
O=C1CC[C@H](c2cccc(-c3ccc(Cn4ccccc4=O)cc3)c2Cl)C(=O)N1 [Compound 201, (R)-3-(2-chloro-4′-((2-oxopyridin-1(2H)-yl)methyl)-[1,1′-biphenyl]-3-yl)piperidine-2,6-dione]	88.7%	60 to 90%	203 nM	100 to 1000 nM						
O=C1CCC(c2cccc(-c3ccc(N4CCC(Cn5ccccc5=O)CC4)cc3)c2Cl)C(=O)N1 (centres unmarked) [Compound 166, 3-(2-chloro-4′-(4-((2-oxopyridin-1(2H)-yl)methyl)piperidin-1-yl)-[1,1′-biphenyl]-3-yl)piperidine-2,6-dione]	61.5%	60 to 90%	517 nM	100 to 1000 nM						
O=C1CCC(c2cccc(-c3ccc(N4CCCCC4=O)cc3)c2Cl)C(=O)N1 (centres unmarked) [Compound 161, 3-(2-chloro-4′-(2-oxopiperidin-1-yl)-[1,1′-biphenyl]-3-yl)piperidine-2,6-dione]	95.4%	> 90%	10.1 nM	≤ 100 nM						
Cc1nccn1Cc1ccc(-c2cccc(C3CCC(=O)NC3=O)c2Cl)cc1 (centres unmarked) [Compound 111]	87.8%	60 to 90%	49.2 nM	≤ 100 nM						
CC1(C)CN(c2cccc(-c3ccc(CC4CCC(=O)NC4=O)cc3Cl)c2)C(=O)CO1 (centres unmarked) [Compound 280]			44.9 nM	≤ 100 nM					83.31%	B (B represents Dmax % >60% and <=90%)
O=C1CCC(c2cccc(-c3ccc(CN4CCCCC4=O)cc3)c2Cl)C(=O)N1 (centres unmarked) [Compound 168, 3-(2-chloro-4′-((2-oxopiperidin-1-yl)methyl)-[1,1′-biphenyl]-3-yl)piperidine-2,6-dione]	91.5%	> 90%	18.8 nM	≤ 100 nM						
O=C1CCC(c2cccc(-c3ccc(CN4CCN5CCCC5C4=O)cc3)c2Cl)C(=O)N1 (centres unmarked) [Compound 261]	84.8%	60 to 90%	101 nM	100 to 1000 nM						
O=C1CCC(c2cccc(-c3ccc(CN4CC5CCCC5C4=O)cc3)c2Cl)C(=O)N1 (centres unmarked) [Compound 282]	98%	> 90%	3.88 nM	≤ 100 nM						
Cn1ccc(COc2ccc(-c3cccc(C4CCC(=O)NC4=O)c3Cl)cc2)n1 (centres unmarked) [Compound 154, 3-(2-chloro-4′-((1-methyl-1H-pyrazol-3-yl)methoxy)-[1,1′-biphenyl]-3-yl)piperidine-2,6-dione]	97%	> 90%	18.7 nM	≤ 100 nM						

Now from value to compound:

Dmax [1]	Dmax [2]	DC50 [3]	DC50 [4]	Dmax (luminescence read at 6 and 24 hours after compound addition, read-out: VAV1 Dmax %)	Dmax (luminescence read at 6 and 24 hours after compound addition, read-out: VAV1 Dmax %, class)	DC50 (luminescence read at 6 and 24 hours after compound addition, read-out: VAV1 DC50)	DC50 (luminescence read at 6 and 24 hours after compound addition, read-out: VAV1 DC50 (nM), class)	VAV1 Dmax % [5]	VAV1 Dmax %, class [5]	Structure (SMILES)
92.1%	> 90%	17 nM	≤ 100 nM							CN1CCC[C@@H](c2ccc(-c3cccc(C4CCC(=O)NC4=O)c3Cl)cc2)C1=O (stereo partly drawn) [Compound 410, 3-(2-chloro-4′-((S)-1-methyl-2-oxopiperidin-3-yl)-[1,1′-biphenyl]-3-yl)piperidine-2,6-dione]
29.4%	< 60%	≥ 10000 nM	> 1000 nM							CN1CC(=O)N(c2ccc(-c3cccc(C4CCC(=O)NC4=O)c3Cl)cn2)CC12CC2 (centres unmarked) [Compound 346, 3-(2-chloro-3-(6-(4-methyl-6-oxo-4,7-diazaspiro[2.5]octan-7-yl)pyridin-3-yl)phenyl)piperidine-2,6-dione]
97.4%	> 90%	10.2 nM	≤ 100 nM							O=C1CCC(c2cccc(-c3ccc(Cc4cccnc4)cc3)c2Cl)C(=O)N1 (centres unmarked) [Compound 374, 3-(2-chloro-4′-(pyridin-3-ylmethyl)-[1,1′-biphenyl]-3-yl)piperidine-2,6-dione]
75.5%	60 to 90%	122 nM	100 to 1000 nM							O=C1CCC(c2cccc(-c3ccc(N4C(=O)CCC45CC5)nc3)c2Cl)C(=O)N1 (centres unmarked) [Compound 384, 3-(2-chloro-3-(6-(5-oxo-4-azaspiro[2.4]heptan-4-yl)pyridin-3-yl)phenyl)piperidine-2,6-dione]
68.3%	60 to 90%	140 nM	100 to 1000 nM							CN1CC(Cc2ccc(-c3cccc(C4CCC(=O)NC4=O)c3Cl)cc2)OC1=O (centres unmarked) [Compound 454, 3-(2-chloro-4′-((3-methyl-2-oxooxazolidin-5-yl)methyl)-[1,1′-biphenyl]-3-yl)piperidine-2,6-dione]
94.4%	> 90%	10 nM	≤ 100 nM							O=C1CCC(c2cccc(-c3ccc(N4CCCNC4=O)cc3)c2Cl)C(=O)N1 (centres unmarked) [Compound 372, 3-(2-chloro-4′-(2-oxotetrahydropyrimidin-1(2H)-yl)-[1,1′-biphenyl]-3-yl)piperidine-2,6-dione]
96.7%	> 90%	8.08 nM	≤ 100 nM							Cn1ccc(Cc2nn(C)c3cc(-c4cccc(C5CCC(=O)NC5=O)c4Cl)ccc23)n1 (centres unmarked) [Compound 480, 3-(2-chloro-3-(1-methyl-3-((1-methyl-1H-pyrazol-3-yl)methyl)-1H-indazol-6-yl)phenyl)piperidine-2,6-dione]
76%	60 to 90%	167 nM	100 to 1000 nM							CN1CCCN(c2ncc(-c3cccc(C4CCC(=O)NC4=O)c3Cl)cc2F)C1=O (centres unmarked) [Compound 382, 3-(2-chloro-3-(5-fluoro-6-(3-methyl-2-oxotetrahydropyrimidin-1(2H)-yl)pyridin-3-yl)phenyl)piperidine-2,6-dione]
82.4%	60 to 90%	25.9 nM	≤ 100 nM							CN1Cc2cccc(-c3ccc(-c4cccc(C5CCC(=O)NC5=O)c4Cl)cc3)c2S1(=O)=O (centres unmarked) [Compound 406, 3-(2-chloro-4′-(2-methyl-1,1-dioxido-2,3-dihydrobenzo[d]isothiazol-7-yl)-[1,1′-biphenyl]-3-yl)piperidine-2,6-dione]
94.3%	> 90%	21.7 nM	≤ 100 nM							CC1(Cc2ccc(-c3cccc(C4CCC(=O)NC4=O)c3Cl)cc2)COC1 (centres unmarked) [Compound 440, 3-(2-chloro-4′-((3-methyloxetan-3-yl)methyl)-[1,1′-biphenyl]-3-yl)piperidine-2,6-dione]
				95.8%	> 90%	18 nM	≤ 100 nM			CC1(C)Cc2cc(-c3cccc(C4CCC(=O)NC4=O)c3Cl)ccc2N1 (centres unmarked) [Compound 497, 3-(2-chloro-3-(2,2-dimethylindolin-5-yl)phenyl)piperidine-2,6-dione]
90.6%	> 90%	706 nM	100 to 1000 nM							O=C1CC[C@](F)(c2cccc(-c3ccc(N4CCCCC4=O)cc3)c2Cl)C(=O)N1 (single isomer, unassigned) [Compound 367]
69.5%	60 to 90%	331 nM	100 to 1000 nM							O=C1CCC(c2cccc(-c3cnc(N4CCCCC4=O)c(F)c3)c2Cl)C(=O)N1 (centres unmarked) [Compound 369, 3-(2-chloro-3-(5-fluoro-6-(2-oxopiperidin-1-yl)pyridin-3-yl)phenyl)piperidine-2,6-dione]
97.7%	> 90%	7.1 nM	≤ 100 nM							O=C1CCC(c2cccc(-c3ccc(-n4cccc(CC(F)F)c4=O)cc3)c2Cl)C(=O)N1 (centres unmarked) [Compound 444, 3-(2-chloro-4′-(3-(2,2-difluoroethyl)-2-oxopyridin-1(2H)-yl)-[1,1′-biphenyl]-3-yl)piperidine-2,6-dione]
98.6%	> 90%	4.79 nM	≤ 100 nM							O=C1CCC(c2cccc(-c3ccc(-c4cccn(CC(F)(F)F)c4=O)cc3)c2Cl)C(=O)N1 (centres unmarked) [Compound 458, 3-(2-chloro-4′-(2-oxo-1-(2,2,2-trifluoroethyl)-1,2-dihydropyridin-3-yl)-[1,1′-biphenyl]-3-yl)piperidine-2,6-dione]
